# Assay results: US20250176550A1, “HERBICIDE COMPOSITION OF URACIL COMPOUND CONTAINING CARBOXYLATE FRAGMENT AND THE USE THEREOF” (Jiangsu Flag Chemical Industry Co., Ltd., priority 2022, published 2025)
# Assays:
# Assay in all cases: Indoor virulence and combined effect, greenhouse pot test, post-emergence stem and leaf spray, fresh weight inhibition
# Type in all cases: in vivo
# [1] = system: digitaria sanguinalis; details: for Fresh weight suppression rate %, B single agent: Table 14
# Procedure: (§1) The active ingredients A and B are respectively screened and an indoor combined effect of the composition on weeds was evaluated by an indoor test and a field test, to determine a combined effect of the composition on weeds.
# (§2) Quantitative seeds of Poaceae weeds (echinochloa crusgalli, Digitaria sanguinalis, setaria viridis, Eleusine indica, avena fatua, alopecurus japonicus, alopecurus aequalis, Lolium multiflorum) and broadleaf weeds (eclipta prostrata, rorippa dubia, Abutilon theophrasti, conyza canadensis, veronica persica, myosoton aquaticum, polygonum lapathifolium, galium aparine var. tenerum, alisma plantago-aquatica, geranium carolinianum) were sown in paper cup containing nutrient soil with a diameter of 7 cm, covered with soil for 1 cm after sowing. After pressing and watering, they were cultured in a greenhouse according to a conventional method. Poaceae weeds grew to 3˜4 leaf stage, broad-leaved weeds grew to 4˜6 leaf stage, spraying treatment to both stem and leaf was performed; and pre-seedling soil spray treatment was performed 24 hours after sowing. Following an experimental design dosage, a WP-2000 walking spray tower (spindle speed 96 mm/r, spray height 200 mm, effective spray amplitude of nozzle 350 mm, nozzle flow rate 390 mL/min, nozzle walking speed 210 mm/s) was used for the spray treatment. The experiment was repeated three times. After being treated, a sample material is placed in an operation hall, and after the drug solution is naturally dried out, the sample material is placed in a greenhouse and managed according to the conventional method. A reaction of weeds to the drug agent is observed and recorded, and a regularly visual check of a control effect of the drug agent on weeds was performed after the treatment.
# (§3) All of original drugs were using acetone as a solvent, being diluted with 0.1 wt % emulsifier of Tween-80 aqueous solution, and being diluted right before using.
# (§4) When determining a ratio or content of the active ingredient A and the active ingredient B, it should be measured from characteristics of action of both agents and virulence thereof, as well as the main purpose of use of a formula shall also be considered in. In the present study, on a basis of previous pre-test, the dosages of the active ingredient A and the active ingredient B were set, when being used alone and mixed, as shown in the following table. Water containing no agent, but containing the same solvent and emulsifier was used as a blank control.
# (§5) Repeat 4 times for each treatment, 3 pots per treatment each time and 30 weed seeds were sown for each pot.
# (§6) Adopting an absolute number survey method, using a blade to cut the whole seedling of surviving weed along soil surface, and weighting the fresh weight of the weed with an analytical balance. For weeds that had died, counting the fresh weight as zero.
# (§7) Survey period and frequency: 21 days after the treatment, total 1 investigation.
# (§8) The theoretical fresh weight inhibition rate (E0-Expected Efficacy=[…]) of each treatment combination was calculated by Gowing method, and then compared with the measured inhibition rate (E-Observed Efficacy) to evaluate the combined effect type of both on weeds. When E-E0 value was greater than 10%, it was counted as a synergistic effect, less than −10%, it was counted as an antagonistic effect, and between −10%˜10%, it was counted as an additive effect. According to a plurality of factors including an actual control efficacy, a herbicide characteristic, a formula balance and other factors to determine the best ratio. In the formula, X is the fresh weight inhibition rate of the ingredient A at a dosage of P; Y is the fresh weight inhibition rate of the active ingredient B at a dosage of Q.
# (§9) The statistical results are shown in Table 1 to Table 44 below, except for those marked clearly as “pre-emergence treatment”, all others are “post-emergence treatment”. […]
# [2] = system: echinochloa crusgalli; details: Echinochloa crus-galli, 504 h, Table 2, post-emergence, 21 days after treatment, read-out: Fresh weight inhibition rate %, B single agent
# Procedure: as §1
# as §2, with “Following an experimental design dosage, a WP-2000 walking spray tower (spindle speed 96 mm/r, spray height 200 mm, effective spray amplitude of nozzle 350 mm, nozzle flow rate 390 mL/min, nozzle walking speed 210 mm/s) was used for the spray treatment.” left out, “method.” for “method. A reaction of weeds to the drug agent is observed and recorded, and a regularly visual check of a control effect of the drug agent on weeds was performed after the treatment.”
# as §3, §4, §5, §6, §7
# When E-E0 value was greater than 10%, it was counted as a synergistic effect, less than −10%, it was counted as an antagonistic effect, and between −10%˜10%, it was counted as an additive effect. […] In the formula, X is the fresh weight inhibition rate of the ingredient A at a dosage of P; Y is the fresh weight inhibition rate of the active ingredient B at a dosage of Q.
# [3] = system: eleusine indica
# Procedure: as §1, §2, §3, §4, §5, §6, §7, §8, §9
compound,measurement,setting,value
CS(=O)(=O)c1cc(C(F)(F)F)ccc1C(=O)c1cnoc1C1CC1 [isoxaflutole],"Fresh weight inhibition rate %, B single agent","[1]; Table 16, B 40 g a.i./ha",56.12%
same,"Fresh weight inhibition rate %, B single agent","[1]; Table 16, B 50 g a.i./ha",71.94%
same,"Fresh weight inhibition rate %, B single agent","[1]; Table 16, B 60 g a.i./ha",73.13%
same,"Fresh weight inhibition rate %, B single agent","[1]; Table 16, B 70 g a.i./ha",76.72%
C[C@@H](Oc1ccc(Oc2nc3ccc(Cl)cc3o2)cc1)C(=O)N(C)c1ccccc1F [metamifop],"Fresh weight inhibition rate %, B single agent","[1]; Table 29, B 15 g a.i./ha",49.80%
same,"Fresh weight inhibition rate %, B single agent","[1]; Table 29, B 25 g a.i./ha",55.48%
same,"Fresh weight inhibition rate %, B single agent","[1]; Table 29, B 40 g a.i./ha",58.52%
same,"Fresh weight inhibition rate %, B single agent","[1]; Table 29, B 60 g a.i./ha",60.50%
COc1cnc(OC)n2nc(NS(=O)(=O)c3c(OCC(F)F)cccc3C(F)(F)F)nc12 [penoxsulam],inhibition at 5 g/ha,[2]; 5 g a.i./ha,7.31%
same,inhibition at 10 g/ha,[2]; 10 g a.i./ha,18.3%
CC(C)N(C)S(=O)(=O)NC(=O)c1cc(-n2c(=O)cc(C(F)(F)F)n(C)c2=O)c(F)cc1Cl [saflufenacil],"Fresh weight inhibition rate %, B single agent","[3]; Table 30, B 7.5 g a.i./ha",23.20%
same,"Fresh weight inhibition rate %, B single agent","[3]; Table 30, B 12.5 g a.i./ha",39.66%
same,"Fresh weight inhibition rate %, B single agent","[3]; Table 30, B 20 g a.i./ha",50.62%
same,"Fresh weight inhibition rate %, B single agent","[3]; Table 30, B 30 g a.i./ha",58.13%
same,"Fresh weight inhibition rate %, B single agent","[3]; Table 30, B 40 g a.i./ha",50.09%
COc1cc(OC)nc(NC(=O)NS(=O)(=O)c2ncccc2C(=O)N(C)C)n1 [nicosulfuron],inhibition at 12.5 g/ha,"[1]; Digitaria sanguinalis, 504 h, Table 1, 12.5 g a.i./ha, post-emergence, 21 days after treatment, read-out: Fresh weight inhibition rate %, B single agent",10.2%
same,inhibition at 20 g/ha,"[1]; Digitaria sanguinalis, 504 h, Table 1, 20 g a.i./ha, post-emergence, 21 days after treatment, read-out: Fresh weight inhibition rate %, B single agent",23.4%
same,inhibition at 25 g/ha,"[1]; Digitaria sanguinalis, 504 h, Table 1, 25 g a.i./ha, post-emergence, 21 days after treatment, read-out: Fresh weight inhibition rate %, B single agent",34.9%
same,inhibition at 30 g/ha,"[1]; Digitaria sanguinalis, 504 h, Table 1, 30 g a.i./ha, post-emergence, 21 days after treatment, read-out: Fresh weight inhibition rate %, B single agent",39.1%
COC(=O)[C@@H](C)O/N=C/c1cc(-n2c(=O)cc(C(F)(F)F)n(C)c2=O)c(F)cc1Cl [flufenoximacil],"Fresh weight inhibition rate %, B single agent","[3]; Table 36, B 5 g a.i./ha",34.41%
same,"Fresh weight inhibition rate %, B single agent","[3]; Table 36, B 10 g a.i./ha",51.91%
same,"Fresh weight inhibition rate %, B single agent","[3]; Table 36, B 15 g a.i./ha (row 5 + 15)",55.99%
same,"Fresh weight inhibition rate %, B single agent","[3]; Table 36, B 15 g a.i./ha (row 15 + 15)",55.99%
same,"Fresh weight inhibition rate %, B single agent","[3]; Table 36, B 20 g a.i./ha",59.18%
CS(=O)(=O)c1ccc(C(=O)C2C(=O)CCCC2=O)c([N+](=O)[O-])c1 [mesotrione],"Fresh weight inhibition rate %, B single agent","[1]; Table 13, B 90 g a.i./ha",45.39%
same,"Fresh weight inhibition rate %, B single agent","[1]; Table 13, B 105 g a.i./ha",56.62%
same,"Fresh weight inhibition rate %, B single agent","[1]; Table 13, B 120 g a.i./ha",58.12%
Cc1c(C(=O)c2cnn(C)c2O)ccc(S(C)(=O)=O)c1C1=NOCC1 [topramezone],"Fresh weight inhibition rate %, B single agent","[1]; Table 15, B 7.5 g a.i./ha",3.85%
same,"Fresh weight inhibition rate %, B single agent","[1]; Table 15, B 10 g a.i./ha",17.09%
same,"Fresh weight inhibition rate %, B single agent","[1]; Table 15, B 12.5 g a.i./ha",19.6%
CCOC(=O)COc1ncccc1Oc1cc(-n2c(=O)cc(C(F)(F)F)n(C)c2=O)c(F)cc1Cl [epyrifenacil],"Fresh weight inhibition rate %, B single agent","[3]; Table 35, B 5 g a.i./ha",38.04%
same,"Fresh weight inhibition rate %, B single agent","[3]; Table 35, B 10 g a.i./ha",32.92%
same,"Fresh weight inhibition rate %, B single agent","[3]; Table 35, B 15 g a.i./ha",37.91%
same,"Fresh weight inhibition rate %, B single agent","[3]; Table 35, B 20 g a.i./ha",51.59%
Cc1nn(-c2cc(NS(C)(=O)=O)c(Cl)cc2Cl)c(=O)n1C(F)F [sulfentrazone],"Fresh weight inhibition rate %, B single agent","[3]; Table 32, B 75 g a.i./ha",8.30%
same,"Fresh weight inhibition rate %, B single agent","[3]; Table 32, B 120 g a.i./ha",18.12%
same,"Fresh weight inhibition rate %, B single agent","[3]; Table 32, B 150 g a.i./ha",23.53%
CCC[S+]([O-])c1c(C(F)(F)F)ccc(C(=O)Nc2nnc(C)o2)c1F (stereo not drawn) [flusulfinam],"Fresh weight suppression rate %, B single agent",[1]; B 15 g a.i./ha,34.84%
same,"Fresh weight suppression rate %, B single agent",[1]; B 30 g a.i./ha,36.52%
same,"Fresh weight suppression rate %, B single agent",[1]; B 37.5 g a.i./ha,40.37%
same,"Fresh weight suppression rate %, B single agent",[1]; B 45 g a.i./ha,50.75%
CC(C)N.O=C(O)CNCP(=O)(O)O [glyphosate-isopropylammonium],"Fresh weight inhibition rate %, B single agent","[3]; Table 18, B 160 g a.i./ha",27.36%
same,"Fresh weight inhibition rate %, B single agent","[3]; Table 18, B 240 g a.i./ha",32.37%
same,"Fresh weight inhibition rate %, B single agent","[3]; Table 18, B 350 g a.i./ha",35.52%
same,"Fresh weight inhibition rate %, B single agent","[3]; Table 18, B 500 g a.i./ha",45.72%
oxadiargyl,"Fresh weight inhibition rate %, B single agent","[1]; Table 31, B 12.5 g a.i./ha",38.31%
same,"Fresh weight inhibition rate %, B single agent","[1]; Table 31, B 20 g a.i./ha",42.31%
same,"Fresh weight inhibition rate %, B single agent","[1]; Table 31, B 30 g a.i./ha",52.31%
CCOC(=O)C1(C)CC(c2cc(-n3c(=O)cc(C(F)(F)F)n(C)c3=O)c(F)cc2Cl)=NO1 (stereo not drawn) [SY-1604],"Fresh weight inhibition rate %, B single agent","[3]; Table 33, B 7.5 g a.i./ha",47.10%
same,"Fresh weight inhibition rate %, B single agent","[3]; Table 33, B 12.5 g a.i./ha",48.33%
same,"Fresh weight inhibition rate %, B single agent","[3]; Table 33, B 20 g a.i./ha",64.09%
same,"Fresh weight inhibition rate %, B single agent","[3]; Table 33, B 30 g a.i./ha",72.50%
same,"Fresh weight inhibition rate %, B single agent","[3]; Table 33, B 40 g a.i./ha",74.06%
C[C@@H](Oc1nc(F)c(Cl)c(N)c1Cl)C(=O)OCC1CCCO1 (stereo partly drawn) [fluchloraminopyr-tefuryl],"Fresh weight inhibition rate %, B single agent","[1]; Table 41, B 50 g a.i./ha",47.40%
same,"Fresh weight inhibition rate %, B single agent","[1]; Table 41, B 80 g a.i./ha",66.49%
same,"Fresh weight inhibition rate %, B single agent","[1]; Table 41, B 120 g a.i./ha",74.76%
same,"Fresh weight inhibition rate %, B single agent","[1]; Table 41, B 150 g a.i./ha",79.70%
